1 compound from paper PMC10517971, “An inverse agonist of orphan receptor GPR61 acts by a G protein-competitive allosteric mechanism” (Nature Communications, 2023) can be followed below.

Values joined by “and” are separate entries in the source; they are usually repeats but may differ in a detail not shown here. Equal entries are not always repeated. Where two headings read alike, the source gives them in different places.

Assay [1] deals with T1, human GPR61 V288A (Homo sapiens, UniProt Q9BZJ8, V288A).
T1 construct: expressed in transfected cells; host or cells: CHO-K1, transient (Fugene6)
Description: Functional cAMP assay (HTRF), transiently transfected CHO-K1 cells, GPR61 V288A mutant. The class given is cell-based. The conditions noted are these: for IC50: Fig. 3e table. From the text:
(§1) The human GPR61 (reference sequence NM_031936.4) cDNA was synthesized and subcloned into pcDNA5/FRT/TO (Thermo Fisher, Pittsburgh, PA). The pcDNA5/FRT/TO/ human GPR61 plasmid was then transfected into the Flp-In™-CHO Cell Line (Thermo Fisher, Pittsburgh, PA) and a doxycycline-inducible clonal cell line was selected (CHO TREx hGPR61 WT). Sequences encoding untagged and HiBit/hemagglutinin (HA)-tagged versions of the wild-type human GPR61 were synthesized and cloned into pcDNA3.1. The HiBit ([…]) and HA ([…]) tags were sequentially included after the N-terminal initiator methionine. Four single amino acid substitutions (N137A, R140A, V288A, N345A) were then introduced in the untagged and tagged human GPR61 constructs using site-specific mutagenesis. The nucleotide sequences of all receptor constructs were confirmed by automated DNA sequencing.
Parental CHO-K1 cells were maintained at 37 °C in a humidified environment (5% CO2) and grown in Dulbecco’s Modified Eagle Medium (DMEM) F-12 media (Gibco, 11320033) supplemented with 10% FBS, 1% Glutamax (Gibco, 35050061) and 100units/ml penicillin and streptomycin (Gibco, 15140122. Cells were dissociated using a cell dissociation solution (Gibco, 13151-014), counted, and resuspended in complete culture media without antibiotics. Cells were then transiently transfected using Fugene6 (Promega) in a 384-well plate format (Corning, 3570). For each well, 7500 cells were transfected with 5 ng of receptor plasmid, 20 ng of carrier DNA (Promega, PAE4881) and 0.075 μl Fugene6 in a final volume of 25 μl. Fugene6 and DNA were separately diluted in Optimem media (Gibco, 31985070) (1.25 μl final volume each). Fugene6 and DNA solutions were then combined and incubated for 15 min at room temperature. The cell containing solution (22.5 μl) was then added and transfection reactions were mixed and transferred to the assay plate. Following 24 h incubation at 37 °C, wells were rinsed once and 25 μl of HiBit assay buffer (Phenol-red free DMEM F-12 media containing 2% FBS) was added per well. Surface and total receptor expression was measured separately by adding 25 μl per well of the extracellular (Promega, PRN2421) and lytic (Promega, PRN3040) assay solutions, respectively. Plates were incubated for 10 min at room temperature on a shaker and luciferase activity was measured using an EnVision plate reader (Perkin Elmer, Chicago, IL). Expression was normalized as percent of the wild-type receptor signal. Statistical comparisons of expression levels observed with WT versus GPR61 mutants were made by one-way analysis of variance with Dunnett’s post hoc test.
A homogeneous Time-Resolved Fluorescence (HTRF) assay (Perkin Elmer, Dynamic2 kit #) was used to assess receptor basal and inverse agonist activity at human GPR61, GPR62, and GPR101. […]

Assay [2] deals with T2, human GPR61 (Homo sapiens, UniProt Q9BZJ8).
T2 construct: expressed in transfected cells; host or cells: CHO-K1, transient (Fugene6)
The assay can be described thus: Functional cAMP assay (HTRF), stable CHO TREx human GPR61 cells. The class given is cell-based.
Description: as §1
A homogeneous Time-Resolved Fluorescence (HTRF) assay (Perkin Elmer, Dynamic2 kit #) was used to assess receptor basal and inverse agonist activity at human GPR61, GPR62, and GPR101. For routine inverse agonist screening frozen CHO TREx human GPR61, GPR62 and GPR101 cells were used. […] Data were analyzed using the ratio of fluorescence intensity at 620 and 665 nm for each well, extrapolated from the cAMP standard curve to express data as nM cAMP for each well. […]
In general terms: cAMP levels reflect the balance of adenylyl cyclase and phosphodiesterase activity.

T1 sequence (Q9BZJ8 whole entry V288A): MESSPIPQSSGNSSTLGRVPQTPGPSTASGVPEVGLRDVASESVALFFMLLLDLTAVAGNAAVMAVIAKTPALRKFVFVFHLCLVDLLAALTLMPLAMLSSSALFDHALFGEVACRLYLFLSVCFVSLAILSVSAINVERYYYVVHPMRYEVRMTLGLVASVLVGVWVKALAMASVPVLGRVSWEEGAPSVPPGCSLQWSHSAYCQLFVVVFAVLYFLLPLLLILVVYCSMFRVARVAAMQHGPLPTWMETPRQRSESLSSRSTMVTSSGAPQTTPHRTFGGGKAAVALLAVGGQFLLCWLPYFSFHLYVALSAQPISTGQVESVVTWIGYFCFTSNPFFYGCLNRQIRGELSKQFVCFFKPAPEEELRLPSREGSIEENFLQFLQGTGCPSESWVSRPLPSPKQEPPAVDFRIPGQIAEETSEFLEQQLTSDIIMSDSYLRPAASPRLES
T2 sequence (Q9BZJ8 whole entry): as the sequence (Q9BZJ8 whole entry V288A) above, with A288V counted along it

`CCOc1cc(C)nc(N(CCOC)S(=O)(=O)c2ccc(NCc3c(F)cncc3F)nc2OC)n1` [Compound 1]: the IC50 (commonly the concentration that gives 50% inhibition) in assay [1] (HiBit-tagged, read-out: GPR61 cAMP IC50 (95% CI), V288A HiBit-tagged) was 400 nM; in assay [1] (untagged, read-out: GPR61 cAMP IC50 (95% CI), V288A Untagged) it was 406 nM; in assay [2] (stable CHO TREx cells, Supplementary Table 2), 0.021 µM. The “cAMP response (Figure 3e source data)” value in assay [1] (HiBit V288A, concentration -6) is 0.67 and 0.63 and 0.87 and 1.10 and 0.64 and 0.60. In assay [1] (V288A mutant vs wild-type), the “sensitivity of the receptor to inverse agonism in the cAMP assay” value is listed as “less sensitive”. Further, the “potency against GPR61 relative to GPR62 and GPR101” value in assay [2] (GPR61 vs GPR62 and GPR101, peer review reply) is “roughly 1000 fold”.
